Data reported in ChEMBL document CHEMBL1145004, “3-(4-[[Benzyl(methyl)amino]methyl]phenyl)-6,7-dimethoxy-2H-2-chromenone (AP2238) inhibits both acetylcholinesterase and acetylcholinesterase-induced beta-amyloid aggregation: a dual function lead for Alzheimer's disease therapy” (J Med Chem, 2003).

How the values were obtained:
[1] = target: Acetylcholinesterase (Homo sapiens, UniProt P22303); assay: Inhibitory potency was evaluated against recombinant human AChE
[2] = target: Cholinesterase (Homo sapiens, UniProt P06276); assay: Inhibitory potency was evaluated against isolated Butyrylcholinesterase
Cholinesterase, sequence (P06276 whole entry): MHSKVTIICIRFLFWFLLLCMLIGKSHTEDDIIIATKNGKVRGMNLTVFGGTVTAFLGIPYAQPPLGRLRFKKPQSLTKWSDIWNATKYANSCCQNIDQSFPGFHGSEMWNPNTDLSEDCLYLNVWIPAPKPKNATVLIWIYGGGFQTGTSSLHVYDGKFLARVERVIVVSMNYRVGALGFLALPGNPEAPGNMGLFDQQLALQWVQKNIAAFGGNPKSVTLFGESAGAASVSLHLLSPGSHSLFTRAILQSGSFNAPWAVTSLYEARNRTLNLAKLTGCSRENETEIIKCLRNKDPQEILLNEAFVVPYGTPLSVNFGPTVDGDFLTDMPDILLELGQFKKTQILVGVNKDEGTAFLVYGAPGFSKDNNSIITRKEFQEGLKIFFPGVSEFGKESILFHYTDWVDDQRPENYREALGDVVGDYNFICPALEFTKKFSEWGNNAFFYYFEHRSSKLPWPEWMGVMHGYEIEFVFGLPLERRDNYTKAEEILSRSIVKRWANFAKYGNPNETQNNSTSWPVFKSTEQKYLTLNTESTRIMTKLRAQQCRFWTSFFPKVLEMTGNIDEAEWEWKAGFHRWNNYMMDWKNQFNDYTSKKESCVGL

Acetylcholinesterase, sequence (P22303 whole entry): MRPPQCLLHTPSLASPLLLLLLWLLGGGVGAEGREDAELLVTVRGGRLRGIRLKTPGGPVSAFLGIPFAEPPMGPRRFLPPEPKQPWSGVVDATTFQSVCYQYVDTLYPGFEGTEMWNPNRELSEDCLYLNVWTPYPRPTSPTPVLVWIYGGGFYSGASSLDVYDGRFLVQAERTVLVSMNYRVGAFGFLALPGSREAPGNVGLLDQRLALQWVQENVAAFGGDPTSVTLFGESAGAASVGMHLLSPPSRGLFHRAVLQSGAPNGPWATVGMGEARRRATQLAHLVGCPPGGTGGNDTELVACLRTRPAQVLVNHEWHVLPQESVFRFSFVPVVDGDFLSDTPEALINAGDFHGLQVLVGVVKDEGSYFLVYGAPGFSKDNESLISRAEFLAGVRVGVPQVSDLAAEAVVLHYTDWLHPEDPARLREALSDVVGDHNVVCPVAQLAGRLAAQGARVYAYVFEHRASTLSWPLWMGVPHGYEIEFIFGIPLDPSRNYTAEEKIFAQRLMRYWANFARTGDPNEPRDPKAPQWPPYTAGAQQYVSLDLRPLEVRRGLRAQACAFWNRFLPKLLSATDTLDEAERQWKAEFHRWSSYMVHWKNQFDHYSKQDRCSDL

COc1cc2cc(-c3ccc(CN(C)Cc4ccccc4)cc3)c(=O)oc2cc1OC
IC50 [1]: 44.5 nM
Ki [1]: 21.7 nM
IC50 [2]: 48.9 µM
